# Measurements reported in US6214345A, “Lysosomal enzyme-cleavable antitumor drug conjugates” (Bristol-Myers Squibb Co., priority 1993, dated 2001).
# Structures can show the parent of a compound that is named as a salt.
# Experiments:
# Bovin spleen cathepsin B = molecular target: T1, Bovin spleen cathepsin B (Bos taurus, UniProt P07688); assay: Cathepsin B unmasking of Z-Phe-Lys-PABC-DOX (Test III); type: biochemical, bovine; details: pH 5.0 acetate buffer, about 37° C., [Substrate]=40 μM, [Cathepsin B]=ca. 41 nM
# T1 construct: purchased Sigma; host or cells: bovine spleen
# [1] = Human plasma stability of Z-Phe-Lys-PABC-DOX (Test IV); type: in vitro ADME; details: freshly drawn human plasma
# Description: Aliquots (50 μl) were periodically removed and diluted with cold methanol (100 μl). The samples were centrifuged and the resulting liquid injected into the HPLC (conditions as above). Enough DOX was added to a separate sample of plasma to give a theoretical release of 1% from the substrate. This was successfully detected using the same methods.
# HCT116 colon line = assay: In vitro cytotoxicity assay (3H-thymidine uptake), HCT116; type: cell-based, human; details: antigen-negative HCT116, 2 hours exposure
# Description: All dilutions were performed in quadruplicate.
# [2] = system: L2987 human lung carcinoma xenografts; assay: Antitumor activity against established L2987 human tumor xenografts (Test VI); type: in vivo, mice
# Description: The BR96-PEP-DOX conjugate (MR=4.41) was evaluated in vivo (Table 1) against L2987 human lung carcinoma xenografts. Therapy was initiated 14 days after tumor implant when the tumors were approximately 75 mm 3 in size.
# A2780 ovarian line = details: A2780, 2 hours exposure, 3H-thymidine uptake
# Excerpt: (§1) L2987 is a lung adenocarcinoma line obtained from I. Hellstrom (Bristol-Myers Squibb, Seattle, Wash.). The HCT116 colorectal tumor line was obtained from M. Brattain (Baylor Inst., Tex.). A2780 is an ovarian carcinoma line obtained from K. Scanlon (National Cancer Institute).
# (§2) Monolayer cultures of human carcinoma cells were harvested using trypsin-EDTA (GIBCO, Grand Island, N.Y.), and the cells counted and resuspended to 1×10^5 /ml in RPMI-1640 containing 10% heat inactivated fetal calf serum (RPMI-10% FCS). Cells (0.1 ml/well) were added to each well of 96 well microtiter plates and incubated overnight at about 37° C. in a humidified atmosphere of 5% CO2. Media was removed from the plates and serial dilutions of DOX or MAb-DOX conjugates added to the walls. All dilutions were performed in quadruplicate. Cells were exposed to DOX or MAb-DOX conjugates for about 2 hours at about 37° C. in a humidified atmosphere of 5% CO2. Plates were then centrifuged (200×g, 5 min.), the drug or conjugate removed, and the cells washed 3× with RPMI-10% FCS. The cells were cultured in RPMI-10% FCS (37° C., 5% CO2) for an additional 48 hours. At this time the cells were pulsed for about 2 hours with 1.0 uCi/well of ^3 H-thymidine (New England Nuclear, Boston, Mass.).
# L2987 lung line = details: L2987, 2 hours exposure, 3H-thymidine uptake
# Excerpt: as §1, §2
# cathepsin B = cathepsin B (Bos taurus, UniProt P07688)
# Description: Bovin spleen cathepsin B (Sigma, EC 3.4.22.1, MW ca. 40,000) (10 units) was dissolved in 1 ml pH 5.0 acetate buffer (25 mM acetate+1 mM EDTA), giving a solution roughly 13.7 M. 6 μl of the enzyme solution was incubated with 12 μl of an activating solution (30 mM dithiothreitol and 15 mM EDTA) for about 15 minutes at room temperature. To this was added 2 ml of pH 5.0 acetate buffer (25 mM acetate with 1 mM EDTA) which had been incubated at about 37° C., followed by 8 μl of a 10 mM solution of Z-Phe-Lys-PABC-DOX in methanol ([Substrate]=40 μM, [Cathepsin B]=ca. 41 nM). The mixture was incubated at about 37° C., and aliquots were periodically removed and injected into the HPLC (C-18 column; 80:20 methanol/pH 2.8 triethylammonium formate (50 mM) buffer; 1 ml/min.; 495 mn detection wavelength).
# [3] = 0.31 mg/kg DOX, 20 mg/kg BR96 per injection
# [4] = 0.63 mg/kg DOX, 39 mg/kg BR96 per injection
# [5] = 1.25 mg/kg DOX, 78 mg/kg BR96 per injection
# [6] = 2.5 mg/kg DOX, 156 mg/kg BR96 per injection
# [7] = 5 mg/kg DOX, 312 mg/kg BR96 per injection
# [8] = 10 mg/kg DOX, 625 mg/kg BR96 per injection
# [9] = 20 mg/kg DOX, 1250 mg/kg BR96 per injection
compound,measurement,setting,value
"COc1cccc2c1C(=O)c1c(O)c3c(c(O)c1C2=O)C[C@@](O)(C(=O)CO)C[C@@H]3O[C@H]1C[C@H](NC(=O)OCc2ccc(NC(=O)[C@H](CCCCN)NC(=O)[C@H](Cc3ccccc3)NC(=O)OCc3ccccc3)cc2)[C@H](O)[C@H](C)O1 [Z-Phe-Lys-PABC-DOX, Z-Phe-Lys-PABC-DOX-HCl]",half-life of release of free DOX,Bovin spleen cathepsin B,7 to 9 min
same,free DOX detected in plasma,[1]; over 7 hours,No free DOX was detected
same,half-life,[1]; no release over 7 hours,> 350 h
"COc1cccc2c1C(=O)c1c(O)c3c(c(O)c1C2=O)C[C@@](O)(C(=O)CO)C[C@@H]3O[C@H]1C[C@H](N)[C@H](O)[C@H](C)O1 [DOX, Doxorubicin, reference compound]",in vitro activity,HCT116 colon line,sensitive
same,% Tumor Regressions Complete,[2]; DOX 6 mg/kg/injection,0%
same,% Tumor Regressions Partial,[2]; DOX 6 mg/kg/injection,0%
same,Log Cell Kill,[2]; DOX 6 mg/kg/injection,1.5
same,% Tumor Regressions Complete,[2]; DOX 8 mg/kg/injection,10%
same,% Tumor Regressions Partial,[2]; DOX 8 mg/kg/injection,0%
same,Log Cell Kill,[2]; DOX 8 mg/kg/injection,2.4
BR96-succinimidocaproyl-phenylalanine-lysine-p-aminovenzyl-carbamoyloxy-doxorubicin [BR96-DOX],"in vitro potency, fold less potent than unconjugated DOX",A2780 ovarian line,approximately 50 fold
same,in vitro potency compared with unconjugated DOX,L2987 lung line,equivalent to that of unconjugated DOX
same,in vitro activity,HCT116 colon line,not active
same,% Tumor Regressions Complete,[2]; [3],0%
same,% Tumor Regressions Partial,[2]; [3],0%
same,Log Cell Kill,[2]; [3],0.2
same,% Tumor Regressions Complete,[2]; [4],0%
same,% Tumor Regressions Partial,[2]; [4],0%
same,Log Cell Kill,[2]; [4],0.3
same,% Tumor Regressions Complete,[2]; [5],10%
same,% Tumor Regressions Partial,[2]; [5],10%
same,Log Cell Kill,[2]; [5],2.4
same,% Tumor Regressions Complete,[2]; [6],90%
same,% Tumor Regressions Partial,[2]; [6],10%
same,Log Cell Kill,[2]; [6],> 7
same,% Tumor Regressions Complete,[2]; [7],100%
same,% Tumor Regressions Partial,[2]; [7],0%
same,Log Cell Kill,[2]; [7],> 7
same,% Tumor Regressions Complete,[2]; [8],89%
same,% Tumor Regressions Partial,[2]; [8],11%
same,Log Cell Kill,[2]; [8],> 7
same,% Tumor Regressions Complete,[2]; [9],100%
same,% Tumor Regressions Partial,[2]; [9],0%
same,Log Cell Kill,[2]; [9],> 7
same,activity and tolerability in vivo,[2]; doses of 1.25-20 mg/kg equivalent DOX/injection,active and tolerated
same,activity compared with optimized DOX,[2]; doses of ≥2.5 mg/kg equivalent DOX/injection,significantly more active than optimized DOX
same,half-life of release of free DOX,"cathepsin B; cathepsin B, pH 5.3, about 37° C., HPLC",about 3 hours
same,t1/2 of DOX release by cathepsin B,cathepsin B; pH 5.3 (37° C.),3.0 h
